21 substances from publication PMC7160673, “A Degenerate Peptide Library Approach to Reveal Sequence Determinants of Methyllysine-Driven Protein Interactions” (Frontiers in Cell and Developmental Biology, 2020) can be followed below.

Where no end group is shown, it is not given here. Peg = not defined here

Holding throughout (type): binding
For one test, the target named is T1, CDYL2 chromo (Homo sapiens, UniProt Q8N8U2).
T1 construct: 1-75; made in house; host or cells: E. coli BL21
T1 sequence (Q8N8U2 1-75): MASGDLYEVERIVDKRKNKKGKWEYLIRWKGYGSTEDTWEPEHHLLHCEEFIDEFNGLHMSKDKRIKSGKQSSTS
The experiment in a line: Histone peptide microarray, CDYL2 chromo. The conditions noted are these: normalized histone peptide array signal, hits; hybridization with 1 M CDYL2 chromo (so in the source); two subarrays. As to the method:
(§1) Peptide microarrays were fabricated using an Aushon 2470 microarrayer and used as described ([Cornett et al., 2017]) with the following modifications. Protein and antibody hybridization steps were performed in buffer containing 25 mM HEPES pH 7.5, 100 mM NaCl, 0.5% BSA (w/v), and 0.1% NP-40. Slides were washed 3 × 5 min in PBS supplemented with 0.1% Tween-20 between each hybridization step. Antibodies used were primary anti-GST (Sigma #7781, 1:2,000 dilution) and an AlexaFluor 647-labeled secondary antibody (Life Technologies A-21245, 1:5,000 dilution). […] Full lists of peptides queried by array analysis are in Supplementary Table S2.

A further test has as its target T2, MPP8 chromo (Homo sapiens, UniProt Q99549).
T2 construct: 50-118; made in house; host or cells: E. coli BL21
T2 sequence (Q99549 50-118): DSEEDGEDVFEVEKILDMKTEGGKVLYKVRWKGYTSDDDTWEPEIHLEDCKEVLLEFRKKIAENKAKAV
The experiment in a line: Histone peptide microarray, MPP8 chromo. Particulars: normalized histone peptide array signal, hits; hybridization with 1 M MPP8 chromo (so in the source); two subarrays. Here is the method:
as §1

Test [1] has as its system Abcam #ab8895, anti-H3K4me1. The experiment in a line: Histone peptide microarray, Abcam ab8895. The conditions noted are these: Abcam ab8895 (anti-H3K4me1) hits, average signal per peptide.
Test [2] concerns ABClonal #A2355, anti-H3K4me1. The experiment in a line: Histone peptide microarray, ABclonal A2355. The conditions noted are these: Abclonal A2355 (anti-H3K4me1) hits.
A further test has as its system CST 9733 (anti-H3K27me3). The experiment in a line: Histone peptide microarray, CST 9733. Particulars: histone peptide array signal normalized to the highest peptide average per subarray, hits; CST 9733 LOT:14 dilution 1:5,000.
Test [3] has as its system Millipore #07-449, anti-H3K27me3. The experiment in a line: Histone peptide microarray, Millipore 07-449. Particulars: Millipore 07-449 (anti-H3K27me3) hits, average signal per peptide.
The test system of a further test is 53BP1 TTD. The experiment in a line: Histone peptide microarray, 53BP1 TTD. Particulars: 53BP1 TTD hits, average signal per peptide. The procedure, abridged:
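Histone peptides were printed as microarrays and probed with protein or antibody in 25 mM HEPES pH 7.5, 100 mM NaCl, 0.5% BSA (w/v), 0.1% NP-40. Between steps, slides were washed 3 × 5 min in PBS with 0.1% Tween-20. Bound GST-tagged protein was detected with anti-GST (1:2,000), then AlexaFluor 647 secondary (1:5,000).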

Test [4] has as its system Active Motif #39161, anti-H3K9me3. The experiment in a line: Histone peptide microarray, Active Motif 39161. The conditions noted are these: Active Motif 39161 (anti-H3K9me3) hits.

“AR(Me2a)TKQTARK(Me2)STGGKAPRKQL-Peg-Biotin [H3.1R2me2aK9me2]”: the “Avg Signal” value at CDYL2 chromo is recorded as 0.425; at MPP8 chromo, 0.8941; in test [1] it was 0.226; in test [2], 0.01048; with CST 9733 (anti-H3K27me3), 0.0005026; in test [3] it was 0.0074.
As for “ARTK(Ac)QTARK(Me3)STGGK(Ac)APRK(Ac)QL-K(Biot)-NH2 [H3.1K4acK9me3K14acK18ac]”, the “Avg Signal” value on CDYL2 chromo turned out to be 0.3091; at MPP8 chromo it was 0.4242; in the test on 53BP1 TTD it was 0.09657; with CST 9733 (anti-H3K27me3), 0.01317; in test [4] it was 0.7316; in test [3], 0.04004.
With “ARTK(Ac)QTARK(Me3)STGGKAPRKQL-K(Biot)-NH2 [H3.1K4acK9me3]”, the “Avg Signal” value on CDYL2 chromo is reported as 0.363; on MPP8 chromo it was 0.6556; in the test on CST 9733 (anti-H3K27me3), 0.00836; in test [4], 0.7317; in test [3], 0.01932.
Consider “ARTK(Me2)QTARK(Me2)STGGKA-Peg-Biot [H3.1K4me2K9me2]”, for which the “Avg Signal” value amounted to 0.1337 on CDYL2 chromo; 0.2515 on MPP8 chromo; 0.2534 in test [1]; 0.2431 in test [2]; 0.0004919 in the test on CST 9733 (anti-H3K27me3); 0.001292 in test [4].
In the case of “ARTK(Me3)QTAR(Me2a)K(Me3)STGGKAPRKQL-K(Biot)-NH2 [H3.1K4me3R8me2aK9me3]”, the “Avg Signal” value on CDYL2 chromo amounted to 0.3995; at MPP8 chromo it was 0.8021; in the test with CST 9733 (anti-H3K27me3) it was 0.01316; in test [4] it was 0.5927; in test [3], 0.06329.
In the case of “ARTK(Me3)QTAR(Me2s)K(Me3)STGGKAPRKQL-K(Biot)-NH2 [H3.1K4me3R8me2sK9me3]”, the “Avg Signal” value on CDYL2 chromo came out at 0.4093; on MPP8 chromo, 0.7903; with 53BP1 TTD it was 0.09278; in test [2] it was 0.001264; in the test on CST 9733 (anti-H3K27me3) it was 0.01805; in test [4], 0.5974. Besides, the “Avg Signal” value in test [3] amounted to 0.05738.
“ARTK(Me3)QTARK(Me2)STGGKA-Peg-Biot [H3.1K4me3K9me2]”: the “Avg Signal” value came out at 0.1809 at CDYL2 chromo; 0.4645 on MPP8 chromo; 0.004396 in test [1]; 0.005297 with CST 9733 (anti-H3K27me3); 0.02282 in test [4]; 0.04855 in test [3].
For the substance “ARTK(Me3)QTARK(Me3)STGGKAPRKQL-K(Biot)-NH2 [H3.1K4me3K9me3]”, the “Avg Signal” value on CDYL2 chromo was determined as 0.4091; on MPP8 chromo, 0.8973; with 53BP1 TTD, 0.1303; in test [1] it was 0.01482; in test [2] it was 0.008666; in the test on CST 9733 (anti-H3K27me3), 0.02074. In addition, the “Avg Signal” value is reported as 1 in test [4] and 0.1282 in test [3].
As for “ARTK(Me)QTARK(Me2)STGGKA-Peg-Biot [H3.1K4me1K9me2]”, the “Avg Signal” value was found to be 0.2405 on CDYL2 chromo; 0.4754 on MPP8 chromo; 0.7578 in test [1]; 0.6304 in test [2]; 0.0001122 with CST 9733 (anti-H3K27me3); 0.004399 in test [4]. The “Avg Signal” value in test [3] is on record as 0.001269.
Turning to “ARTKQTAR(Me2a)K(Me2)STGGKAPRKQL-K(Biot)-NH2 [H3.1R8me2aK9me2]”, the “Avg Signal” value at CDYL2 chromo was determined as 0.1889; on MPP8 chromo, 0.6312; in the test on 53BP1 TTD it was 0.547; in test [1] it was 0.1269; in the test on CST 9733 (anti-H3K27me3), 0.0007823; in test [4] it was 0.006391.
For “ARTKQTAR(Me2a)K(Me3)STGGKAPRKQL-K(Biot)-NH2 [H3.1R8me2aK9me3]”, the “Avg Signal” value on CDYL2 chromo is 0.3975; at MPP8 chromo it was 0.8359; with 53BP1 TTD, 0.2106; in test [1] it was 0.1096; in test [2] it was 0.0005778; in the test with CST 9733 (anti-H3K27me3) it was 0.008858. The “Avg Signal” value in test [4] is given as 0.6713; in test [3] it was 0.01827.
As to “ARTKQTAR(Me2s)K(Me2)STGGKAPRKQL-K(Biot)-NH2 [H3.1R8me2sK9me2]”, the “Avg Signal” value on CDYL2 chromo is 0.1904; on MPP8 chromo, 0.6538; with 53BP1 TTD, 0.3791; in test [1], 0.1111; with CST 9733 (anti-H3K27me3), 0.0002216.
For the substance “ARTKQTAR(Me2s)K(Me3)STGGKAPRKQL-K(Biot)-NH2 [H3.1R8me2sK9me3]”, the “Avg Signal” value at CDYL2 chromo came to 0.3941; on MPP8 chromo it was 1; with 53BP1 TTD, 0.1271; in test [1], 0.1225; with CST 9733 (anti-H3K27me3), 0.01037; in test [4], 0.5557. Further, the “Avg Signal” value in test [3] is 0.05357.
With “ARTKQTAR(Me)K(Me2)STGGKAPRKQL-K(Biot)-NH2 [H3.1R8me1K9me2]”, the “Avg Signal” value is reported as 0.2455 at CDYL2 chromo; 0.5401 on MPP8 chromo; 0.4249 in the test on 53BP1 TTD; 0.138 in test [1]; 0.001447 in test [2]; 0.001142 in test [4]. The “Avg Signal” value in test [3] is given as 0.003186.
Turning to “ARTKQTAR(Me)K(Me3)STGGKAPRKQL-K(Biot)-NH2 [H3.1R8me1K9me3]”, the “Avg Signal” value is 0.4762 on CDYL2 chromo; 0.8612 at MPP8 chromo; 0.134 in the test on 53BP1 TTD; 0.156 in test [1]; 0.008113 in test [2]; 0.005418 in the test on CST 9733 (anti-H3K27me3). The “Avg Signal” value in test [4] stood at 0.7313; in test [3], 0.03826.
As for “ARTKQTARK(Me2)STGGK(Ac)APRKQL-K(Biot)-NH2 [H3.1K9me2K14ac]”, the “Avg Signal” value at CDYL2 chromo is on record as 0.2985; on MPP8 chromo, 0.7946; in test [1], 0.2875; in test [2], 0.01354; in the test on CST 9733 (anti-H3K27me3) it was 0.0003203; in test [4], 0.00928. In addition, the “Avg Signal” value in test [3] was 0.00428.
As to “ARTKQTARK(Me2)STGGKAPRKQL-K(Biot)-NH2 [H3.1K9me2 H3.1(1-20)]”, the “Avg Signal” value on CDYL2 chromo turned out to be 0.2996; at MPP8 chromo it was 0.7317; with CST 9733 (anti-H3K27me3) it was 0.0005298.
For the substance “Ac-APRKQLATKAAR(Me2a)K(Me3)SAPSTGG-Peg-Biot [H3.3R26me2aK27me3]”, the “Avg Signal” value on CDYL2 chromo is 0.1727; at MPP8 chromo it was 0.04277; in the test on 53BP1 TTD it was 0.1003; in test [1] it was 0.0125; in the test on CST 9733 (anti-H3K27me3), 0.914; in test [4], 0.0032. Moreover, the “Avg Signal” value in test [3] is listed as 0.2433.
In the case of “Ac-SGRGKGGKGLGKGGAK(Ac)RHRK(Ac)VLR-Peg-Biot [Peptide H4K16acK20ac]”, the “Avg Signal” value on CDYL2 chromo turned out to be 0.04591; in test [1] it was 0.002797; in test [2] it was 0.000726; in test [4] it was 0.03564; in test [3], 0.001622.
In the case of “Ac-TARK(Me2)STGGKAPRKQLATKAARK(Me2)SAP-Peg-K(Biot)-NH2 [H3.1K9me2K27me2]”, the “Avg Signal” value at CDYL2 chromo came to 1; on MPP8 chromo, 0.9552; in test [1], 0.004725; in test [2] it was 0.0002867; in the test with CST 9733 (anti-H3K27me3) it was 0.04684; in test [4], 0.0006693. Besides, the “Avg Signal” value in test [3] came out at 0.009651.
In the case of “PEPAKSAPAPKKGSK(Ac)KAVTKAQKK-Peg-Biot (chain 2 KAVTKAQKK-{Peg-Biot}; not fully specified; reading uncertain) [Peptide H2BK15ac]”, the “Avg Signal” value is recorded as 0.05586 with CDYL2 chromo; 0.04671 with MPP8 chromo; 0.0005218 in test [1]; 0.00117 in test [2]; 0.01254 in test [4]; 0.004399 in test [3].
